From ChEMBL document CHEMBL4765379, “Synthesis and biological evaluation of diaryl urea derivatives designed as potential anticarcinoma agents using de novo structure-based lead optimization approach” (Eur J Med Chem, 2020) come the findings set out here.

In experiment [1] the test system is HT-29. As to the kind of experiment: Antiproliferative activity against human HT-29 cells assessed as reduction in cell growth incubated for 48 hrs by MTT assay. It is filed as functional, cell-based. To be noted: HT-29, 48 h. (Tetrazolium assays rely on reduction of a dye to a coloured formazan, in cell work by metabolically active cells.)
The test system of experiment [2] is A549. The experiment can be described thus: Antiproliferative activity against human A549 cells assessed as reduction in cell growth incubated for 48 hrs by MTT assay. Format: functional, cell-based. To be noted: A549, 48 h.
Experiment [3] addresses Vascular endothelial growth factor receptor 2 (Homo sapiens) (UniProt P35968). As to the kind of experiment: Inhibition of VEGFR2 in human HT-29 cells assessed as reduction in VEGFR2 phosphorylation incubated for 48 hrs by Western blot analysis. It is filed as cell-based. To be noted: dose 1-10 µM. A general note: In western blotting, separated proteins are transferred to a membrane and probed.

The target is the same in experiment [4]. The experiment can be described thus: Inhibition of VEGFR2 in human HT-29 cells assessed as reduction in c-Raf expression incubated for 48 hrs by Western blot analysis. Format: cell-based. To be noted: dose 1-10 µM.
The target is the same in experiment [5]. As to the kind of experiment: Inhibition of VEGFR2 in human HT-29 cells assessed as reduction in ERK1/2 expression incubated for 48 hrs by Western blot analysis. Format: cell-based. To be noted: dose 1-10 µM.
Experiment [6] has the same target. As to the kind of experiment: Inhibition of VEGFR2 in human HT-29 cells assessed as reduction in MEK expression incubated for 48 hrs by Western blot analysis. It is filed as cell-based. To be noted: dose 1-10 µM.
Experiment [7] has the same target. The experiment can be described thus: Inhibition of VEGFR2 in human HT-29 cells assessed as reduction in ERK1/2 phosphorylation incubated for 48 hrs by Western blot analysis. It is filed as cell-based. To be noted: dose 1-10 µM.
Experiment [8] has as its system HT-29. The experiment can be described thus: Induction of apoptosis in human HT-29 cells assessed as early apoptotic cells incubated for 48 hrs by annexin V-FITC and PI staining based flow cytometry analysis. Format: functional, cell-based. To be noted: dose 1-10 µM. For orientation: A flow cytometer gives signals particle by particle.
Experiment [9] has as its system HT-29. The experiment can be described thus: Induction of apoptosis in human HT-29 cells assessed as late apoptotic cells incubated for 48 hrs by annexin V-FITC and PI staining based flow cytometry analysis. It is filed as functional, cell-based. To be noted: dose 1-10 µM.
Experiment [10] concerns HT-29. As to the kind of experiment: Induction of apoptosis in human HT-29 cells assessed as viable cells at 1 uM incubated for 48 hrs by annexin V-FITC and PI staining based flow cytometry analysis (reference value: 88.2 %). To be noted: read-out: Activity. It is filed as functional.
The subject of experiment [11] is HT-29. As to the kind of experiment: Induction of apoptosis in human HT-29 cells assessed as early apoptotic cells at 1 uM incubated for 48 hrs by annexin V-FITC and PI staining based flow cytometry analysis (reference value: 1.01 %). It is filed as functional.
Experiment [12] has as its system HT-29. As to the kind of experiment: Induction of apoptosis in human HT-29 cells assessed as late apoptotic cells at 1 uM incubated for 48 hrs by annexin V-FITC and PI staining based flow cytometry analysis (reference value: 1.08 %). It is filed as functional.
Experiment [13] concerns HT-29. As to the kind of experiment: Induction of apoptosis in human HT-29 cells assessed as necrotic cells at 1 uM incubated for 48 hrs by annexin V-FITC and PI staining based flow cytometry analysis (reference value: 9.68 %). It is filed as functional.
The subject of experiment [14] is HT-29. As to the kind of experiment: Induction of apoptosis in human HT-29 cells assessed as viable cells at 5 uM incubated for 48 hrs by annexin V-FITC and PI staining based flow cytometry analysis (reference value: 88.2 %). Format: functional. To be noted: read-out: Activity.
Experiment [15] concerns HT-29. As to the kind of experiment: Induction of apoptosis in human HT-29 cells assessed as early apoptotic cells at 5 uM incubated for 48 hrs by annexin V-FITC and PI staining based flow cytometry analysis (reference value: 1.01 %). It is filed as functional.
Experiment [16] concerns HT-29. The experiment can be described thus: Induction of apoptosis in human HT-29 cells assessed as late apoptotic cells at 5 uM incubated for 48 hrs by annexin V-FITC and PI staining based flow cytometry analysis (reference value: 1.08 %). It is filed as functional.
Experiment [17] has as its system HT-29. The experiment can be described thus: Induction of apoptosis in human HT-29 cells assessed as necrotic cells at 5 uM incubated for 48 hrs by annexin V-FITC and PI staining based flow cytometry analysis (reference value: 9.68 %). Format: functional.
Experiment [18] deals with HT-29. As to the kind of experiment: Induction of apoptosis in human HT-29 cells assessed as viable cells at 10 uM incubated for 48 hrs by annexin V-FITC and PI staining based flow cytometry analysis (reference value: 88.2 %). Format: functional. To be noted: read-out: Activity.
Experiment [19] deals with HT-29. As to the kind of experiment: Induction of apoptosis in human HT-29 cells assessed as early apoptotic cells at 10 uM incubated for 48 hrs by annexin V-FITC and PI staining based flow cytometry analysis (reference value: 1.01 %). Format: functional.
Experiment [20] deals with HT-29. As to the kind of experiment: Induction of apoptosis in human HT-29 cells assessed as late apoptotic cells at 10 uM incubated for 48 hrs by annexin V-FITC and PI staining based flow cytometry analysis (reference value: 1.08 %). Format: functional.
In experiment [21] the test system is HT-29. The experiment can be described thus: Induction of apoptosis in human HT-29 cells assessed as necrotic cells at 10 uM incubated for 48 hrs by annexin V-FITC and PI staining based flow cytometry analysis (reference value: 9.68 %). It is filed as functional.
Experiment [22] deals with HT-29. The experiment can be described thus: Induction of apoptosis in human HT-29 cells assessed as increase in caspase3 expression incubated for 48 hrs by Western blot analysis. Format: functional, cell-based. To be noted: dose 1-10 µM.
Experiment [23] deals with HT-29. The experiment can be described thus: Induction of apoptosis in human HT-29 cells assessed as upregulation of Bax expression at 1 to 10 uM incubated for 48 hrs by Western blot analysis. Format: functional, cell-based. To be noted: dose 1-10 µM.
Experiment [24] deals with HT-29. As to the kind of experiment: Induction of apoptosis in human HT-29 cells assessed as downregulation of Bcl2 expression at 1 to 10 uM incubated for 48 hrs by Western blot analysis. Format: functional, cell-based. To be noted: dose 1-10 µM.
Experiment [25] deals with HT-29. The experiment can be described thus: Induction of apoptosis in human HT-29 cells assessed as increase in ratio of Bax/Bcl2 at 1 to 10 uM incubated for 48 hrs by Western blot analysis. Format: functional, cell-based. To be noted: dose 1-10 µM.
For experiment [26], the system named is HT-29. The experiment can be described thus: Induction of cell cycle arrest in human HT-29 cells assessed as G1 phase accumulation at 1 uM incubated for 48 hrs by PI staining based flow cytometry analysis (reference value: 56.39 %). It is filed as functional.
Experiment [27] concerns HT-29. The experiment can be described thus: Induction of cell cycle arrest in human HT-29 cells assessed as S phase accumulation at 1 uM incubated for 48 hrs by PI staining based flow cytometry analysis (reference value: 36.98 %). Format: functional.
The test system of experiment [28] is HT-29. As to the kind of experiment: Induction of cell cycle arrest in human HT-29 cells assessed as G2 phase accumulation at 1 uM incubated for 48 hrs by PI staining based flow cytometry analysis (reference value: 11.7 %). It is filed as functional.
The test system of experiment [29] is HT-29. As to the kind of experiment: Induction of cell cycle arrest in human HT-29 cells assessed as subG1 phase accumulation at 1 uM incubated for 48 hrs by PI staining based flow cytometry analysis (reference value: 0.06 %). Format: functional.
Experiment [30] deals with HT-29. The experiment can be described thus: Induction of cell cycle arrest in human HT-29 cells assessed as G1 phase accumulation at 5 uM incubated for 48 hrs by PI staining based flow cytometry analysis (reference value: 56.39 %). Format: functional.
The test system of experiment [31] is HT-29. The experiment can be described thus: Induction of cell cycle arrest in human HT-29 cells assessed as S phase accumulation at 5 uM incubated for 48 hrs by PI staining based flow cytometry analysis (reference value: 36.98 %). Format: functional.
Experiment [32] concerns HT-29. The experiment can be described thus: Induction of cell cycle arrest in human HT-29 cells assessed as G2 phase accumulation at 5 uM incubated for 48 hrs by PI staining based flow cytometry analysis (reference value: 11.7 %). It is filed as functional.
Experiment [33] relates to HT-29. The experiment can be described thus: Induction of cell cycle arrest in human HT-29 cells assessed as subG1 phase accumulation at 5 uM incubated for 48 hrs by PI staining based flow cytometry analysis (reference value: 0.06 %). It is filed as functional.
In experiment [34] the test system is HT-29. The experiment can be described thus: Induction of cell cycle arrest in human HT-29 cells assessed as G1 phase accumulation at 10 uM incubated for 48 hrs by PI staining based flow cytometry analysis (reference value: 56.39 %). It is filed as functional.
For experiment [35], the system named is HT-29. As to the kind of experiment: Induction of cell cycle arrest in human HT-29 cells assessed as S phase accumulation at 10 uM incubated for 48 hrs by PI staining based flow cytometry analysis (reference value: 36.98 %). It is filed as functional.
In experiment [36] the test system is HT-29. The experiment can be described thus: Induction of cell cycle arrest in human HT-29 cells assessed as G2 phase accumulation at 10 uM incubated for 48 hrs by PI staining based flow cytometry analysis (reference value: 11.7 %). Format: functional.
Experiment [37] concerns HT-29. The experiment can be described thus: Induction of cell cycle arrest in human HT-29 cells assessed as subG1 phase accumulation at 10 uM incubated for 48 hrs by PI staining based flow cytometry analysis (reference value: 0.06 %). Format: functional.
Experiment [38] deals with HT-29. As to the kind of experiment: Induction of cell cycle arrest in human HT-29 cells assessed as reduction in cyclin D1 level incubated for 48 hrs by Western blot analysis. It is filed as functional, cell-based. To be noted: dose 1-10 µM.
Experiment [39] relates to HT-29. The experiment can be described thus: Induction of cell cycle arrest in human HT-29 cells assessed as reduction in CDK4 level incubated for 48 hrs by Western blot analysis. It is filed as functional, cell-based. To be noted: dose 1-10 µM.
Experiment [40] concerns HT-29. The experiment can be described thus: Induction of ROS accumulation in human HT-29 cells at 1 to 10 uM incubated for 12 hrs by […] and DAPI staining based luminescence spectrometer. It is filed as functional, cell-based. To be noted: dose 1-10 µM.

Calls of active or inactive are those of the source. The calls are words filed in the database; no cut-off is given here.

Chain of Vascular endothelial growth factor receptor 2 (Homo sapiens) (P35968 whole entry): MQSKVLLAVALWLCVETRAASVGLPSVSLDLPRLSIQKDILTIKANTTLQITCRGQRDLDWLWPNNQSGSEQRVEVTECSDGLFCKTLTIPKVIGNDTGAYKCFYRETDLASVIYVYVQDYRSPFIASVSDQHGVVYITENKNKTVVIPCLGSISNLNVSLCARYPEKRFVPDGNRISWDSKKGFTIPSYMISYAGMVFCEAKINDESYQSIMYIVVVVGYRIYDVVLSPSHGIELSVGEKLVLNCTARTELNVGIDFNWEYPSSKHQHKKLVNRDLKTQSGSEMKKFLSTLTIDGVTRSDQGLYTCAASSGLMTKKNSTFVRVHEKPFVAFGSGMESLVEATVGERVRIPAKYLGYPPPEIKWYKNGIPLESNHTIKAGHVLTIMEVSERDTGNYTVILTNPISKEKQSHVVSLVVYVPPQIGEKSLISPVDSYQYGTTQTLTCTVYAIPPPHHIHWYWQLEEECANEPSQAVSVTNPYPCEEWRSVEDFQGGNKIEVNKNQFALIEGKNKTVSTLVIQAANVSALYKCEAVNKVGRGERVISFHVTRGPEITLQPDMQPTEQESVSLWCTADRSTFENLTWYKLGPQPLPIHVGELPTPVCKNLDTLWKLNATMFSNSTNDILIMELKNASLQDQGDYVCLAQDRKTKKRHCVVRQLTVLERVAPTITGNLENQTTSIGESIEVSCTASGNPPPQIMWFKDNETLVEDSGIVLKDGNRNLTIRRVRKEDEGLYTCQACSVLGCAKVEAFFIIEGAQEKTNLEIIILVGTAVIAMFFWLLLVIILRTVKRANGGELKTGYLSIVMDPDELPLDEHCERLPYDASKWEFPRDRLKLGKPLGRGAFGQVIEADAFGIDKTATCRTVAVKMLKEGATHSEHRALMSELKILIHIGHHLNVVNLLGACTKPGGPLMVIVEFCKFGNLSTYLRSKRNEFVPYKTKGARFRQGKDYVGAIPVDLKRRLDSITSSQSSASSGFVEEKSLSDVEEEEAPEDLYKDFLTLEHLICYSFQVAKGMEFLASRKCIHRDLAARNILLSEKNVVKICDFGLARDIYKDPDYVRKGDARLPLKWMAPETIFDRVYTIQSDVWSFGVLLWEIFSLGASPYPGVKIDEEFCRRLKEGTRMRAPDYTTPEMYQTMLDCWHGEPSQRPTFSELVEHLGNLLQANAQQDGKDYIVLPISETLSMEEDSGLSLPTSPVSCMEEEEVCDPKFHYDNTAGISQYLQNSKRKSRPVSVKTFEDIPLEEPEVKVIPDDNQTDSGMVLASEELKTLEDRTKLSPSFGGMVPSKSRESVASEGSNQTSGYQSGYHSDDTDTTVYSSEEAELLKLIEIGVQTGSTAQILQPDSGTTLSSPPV

Usually IC50 stands for the concentration that gives 50% inhibition. For `CC(=O)c1cccc(NC(=O)Nc2ccc(OC(=O)c3cc4cc([N+](=O)[O-])ccc4s3)cc2)c1`, the results for the IC50 in experiment [1] and in experiment [2] were 457 µM and 61.5 µM, respectively.
Taken in the same sequence, the figures for `O=C(Nc1ccccc1)Nc1ccc(OC(=O)Cc2ccccc2)cc1` were 185 µM and 153 µM.
On the same counts, the results for `O=C(Nc1ccccc1)Nc1ccc(OC(=O)c2ccccc2)cc1` are 123 µM and 81.2 µM.
For `O=C(Nc1ccc(Cl)cc1)Nc1ccc(OC(=O)c2ccccc2)cc1`, the IC50 was determined as 56 µM in experiment [1] and 24.7 µM in experiment [2].
As for `O=C(Cc1ccccc1)Nc1ccc(NC(=O)Nc2ccccc2)cc1`, the IC50 in experiment [1] turned out to be 3.38 µM; in [2] it was 0.63 µM. Also, the inhibition result in experiment [3], in experiment [4], in experiment [5], in [6] and in experiment [7] was “Dose-dependent effect” in each case. For the same compound, the Activity result was “Dose-dependent effect” in [8]; “Dose-dependent effect” in [9]; 1.46% in experiment [11]; 1.93% in [12]; 14.2% in experiment [13]; 3.09% in experiment [15]. Further, the Activity in [16] was 2.18%; in [17], 7.95%; in experiment [19] it was 2.22%; in experiment [20], 5.46%; in experiment [21] it was 6.75%; in [22], “Dose-dependent effect”. In addition, the Activity is reported as 61.96% in experiment [26]; 29.67% in [27]; 11.64% in experiment [28]; 0.43% in [29]; 63.44% in [30]; 18.48% in experiment [31]. Besides, the Activity is recorded as 18.18% in experiment [32]; 7.45% in experiment [33]; 60.9% in [34]; 15.84% in [35]; 27.49% in experiment [36]; 3.45% in [37]. The Activity result in experiment [38] and in experiment [39] was “Dose-dependent effect” in each case. Further, the viability at 1 µM in experiment [10] was found to be 82.4%. Further, the viability at 5 µM in [14] was determined as 86.8%. The viability at 10 µM in experiment [18] is 85.6%. Moreover, the result in [23], in experiment [24], in [25] and in experiment [40] was Active.
`O=C(Nc1ccc(OC(=O)c2cc3cc([N+](=O)[O-])ccc3s2)cc1)Nc1ccc(Oc2ccccc2)cc1`: the IC50 in [1] worked out at 13.3 µM; in experiment [2], 25.2 µM.
Taken in the same sequence, the figures for `COc1ccc(C(=O)Oc2ccc(NC(=O)Nc3ccc(Cl)c(C(F)(F)F)c3)cc2)cc1` were 33.8 µM and 16.1 µM.
Taken in the same sequence, the figures for `O=C(Nc1ccc(F)cc1)Nc1ccc(OC(=O)c2ccccc2)cc1` were 94.4 µM and 29.7 µM.
